The source of these data is patent US20240101544A1, “INHIBITORS OF QPCTL AND QPCT” (priority 2022, published 2024).

The target of one test is QPCTL (Homo sapiens (Human), UniProt Q9NXS2). Briefly: QPCTL Enzymatic Activity Assay (coupled-enzyme fluorescent assay, H-Gln-AMC substrate). The format is biochemical. As to conditions: recombinant truncated human QPCTL 10-12 nM, 10 μM H-Gln-AMC; read-out: QPCTL Inhibition IC50. On the procedure: Protein expression was induced when the bacterial culture OD600 was approximately 0.7 using 1 mM IPTG and the cells incubated at 20° C. for approximately 16 hours. The QPCTL was purified using nickel column purification, digested by TEV, followed by a second nickel column purification. The protein was further purified by size-exclusion chromatography using a Superdex™ 75 column. The final protein was concentrated using ultrafiltration tubes at a molecular weight cutoff of 10 kilodaltons and stored frozen in protein buffer (25 mM Tris pH 8.3, 150 mM NaCl).
QPCTL activity was measured in a coupled-enzyme assay using the QPCTL substrate, glutamine-7-amido-4-methylcoumarin (H-Gln-AMC, Bachem), which is converted to pyroglutamyl-AMC by QPCTL. Pyroglutamyl-AMC is then converted to the fluorescent molecule, AMC, by incubation with the human enzyme pyroglutamyl peptidase-1. […] Final concentrations of DMSO and test compounds were 2% and 30-100 μM, respectively. Following the incubation, H-Gln-AMC substrate was diluted in assay buffer and added to each well for a final concentration of 10 μM. The reaction was incubated for 60 min at 37° C., before stopping it by boiling at 100° C. for 5 minutes and cooling the plate at 4° C. for 3 minutes. […] Following incubation, the fluorescence was measured with a plate reader using excitation at 380 nm and emission at 460 nm. […] Concentration-response-curves and IC50 values (Table 17) were generated using curve fit software.

Another test concerns the target QPCT (rhQPCT) (Homo sapiens (Human), UniProt Q16769). The experiment in a line: QPCT Enzymatic Activity Assay (coupled-enzyme fluorescent assay, H-Gln-AMC substrate). The format is biochemical. As to conditions: rhQPCT 10-12 nM, 10 μM H-Gln-AMC; read-out: QPCT Inhibition IC50. The protocol: QPCT activity was measured in a coupled-enzyme assay using the QPCT substrate, glutamine-7-amido-4-methylcoumarin (H-Gln-AMC, Bachem), which is converted to pyroglutamyl-AMC by QPCT. Pyroglutamyl-AMC is then converted to the fluorescent molecule, AMC, by incubation with the human enzyme pyroglutamyl peptidase-1 (PGPEP-1). […] Following the incubation, H-Gln-AMC substrate was diluted in assay buffer and added to each well for a final concentration of 10 μM. The reaction was incubated for 60 min at 37° C., before stopping it by boiling at 100° C. for 5 minutes and cooling the plate at 4° C. for 3 minutes. […] Following incubation, the fluorescence was measured with a plate reader using excitation at 380 nm and emission at 460 nm. […] Concentration-response-curves and IC50 values (Table 17) were generated using Collaborative Drug Discovery software.

Sequence of QPCT (rhQPCT) (Q16769 29-361): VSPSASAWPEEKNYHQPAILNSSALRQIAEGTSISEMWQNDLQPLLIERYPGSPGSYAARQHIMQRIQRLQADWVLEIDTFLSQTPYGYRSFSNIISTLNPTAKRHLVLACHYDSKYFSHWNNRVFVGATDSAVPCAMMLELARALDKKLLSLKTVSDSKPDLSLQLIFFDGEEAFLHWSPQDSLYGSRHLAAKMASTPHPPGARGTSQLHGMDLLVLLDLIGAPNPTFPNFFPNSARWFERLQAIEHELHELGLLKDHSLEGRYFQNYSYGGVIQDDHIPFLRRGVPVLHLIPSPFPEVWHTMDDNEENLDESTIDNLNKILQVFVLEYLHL
Sequence of QPCTL (Q9NXS2 53-382): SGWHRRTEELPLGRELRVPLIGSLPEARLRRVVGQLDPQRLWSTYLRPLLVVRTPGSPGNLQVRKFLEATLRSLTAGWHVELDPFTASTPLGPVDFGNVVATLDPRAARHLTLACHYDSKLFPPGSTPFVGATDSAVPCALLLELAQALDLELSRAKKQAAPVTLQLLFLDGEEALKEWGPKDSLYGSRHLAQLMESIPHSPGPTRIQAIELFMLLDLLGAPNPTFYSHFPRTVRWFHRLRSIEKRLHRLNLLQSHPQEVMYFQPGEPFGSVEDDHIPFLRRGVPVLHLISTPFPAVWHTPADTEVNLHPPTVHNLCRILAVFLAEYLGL

As usually defined, the IC50 is the concentration that gives 50% inhibition. Turning to `Cc1cc(-c2ccc(-c3ccn(C)n3)c(C#N)c2N2CCC(c3nncn3C)CC2)cnn1` [Example 61, 6-(1-methyl-1H-pyrazol-3-yl)-2-(4-(4-methyl-4H-1,2,4-triazol-3-yl)piperidin-1-yl)-3-(6-methylpyridazin-4-yl)benzonitrile], the IC50 on QPCTL and at QPCT (rhQPCT) was below 100 nM in each case.
`N#Cc1cccc(-c2ccc(F)nc2)c1N1CCC(c2nncs2)CC1` [Example 72, 2-(4-(1,3,4-thiadiazol-2-yl)piperidin-1-yl)-3-(6-fluoropyridin-3-yl)benzonitrile]: the IC50 on QPCTL and on QPCT (rhQPCT) was 100 to 1000 nM each time.
As to `Cc1cc(-c2ccc(-c3cn[nH]c3)c(C#N)c2N2CCC(c3nncn3C)CC2)cnn1` [Example 74, 2-(4-(4-methyl-4H-1,2,4-triazol-3-yl)piperidin-1-yl)-3-(6-methylpyridazin-4-yl)-6-(1H-pyrazol-4-yl)benzonitrile], the concentration for half-maximal inhibition (IC50) at QPCTL and on QPCT (rhQPCT) was below 100 nM each time.
`Cn1cnnc1C1[C@H]2CN(c3c(C#N)cccc3-c3ccc(F)nc3)C[C@@H]12` (stereo partly drawn) [Example 75, 3-(6-fluoropyridin-3-yl)-2-((1R,5S)-6-(4-methyl-4H-1,2,4-triazol-3-yl)-3-azabicyclo[3.1.0]hexan-3-yl)benzonitrile]: the IC50 at QPCTL and on QPCT (rhQPCT) was 100 to 1000 nM each time.
As for `Cn1ncc(-c2cccc(C#N)c2N2CCC(c3nncn3C)CC2)n1` [Example 99, 3-(2-methyl-2H-1,2,3-triazol-4-yl)-2-(4-(4-methyl-4H-1,2,4-triazol-3-yl)piperidin-1-yl)benzonitrile], the values for the IC50 on QPCTL and on QPCT (rhQPCT) were 100 to 1000 nM and below 100 nM, respectively.
On the same counts, the results for `Cn1cnnc1C1CCN(c2c(C#N)cccc2-c2ccc(F)c(F)c2)CC1` [Example 102, 3′,4′-difluoro-2-(4-(4-methyl-4H-1,2,4-triazol-3-yl)piperidin-1-yl)-[1,1′-biphenyl]-3-carbonitrile] are 100 to 1000 nM and below 100 nM.
On the same counts, the results for `Cn1cnnc1C1CCN(c2c(C#N)cccc2-c2ccc(F)cc2F)CC1` [Example 103, 2′,4′-difluoro-2-(4-(4-methyl-4H-1,2,4-triazol-3-yl)piperidin-1-yl)-[1,1′-biphenyl]-3-carbonitrile] are 100 to 1000 nM and below 100 nM.
In the same order, the values of `Cn1cnnc1C1CCN(c2c(C#N)cccc2-c2cnnn2C)CC1` [Example 104, 3-(1-methyl-1H-1,2,3-triazol-5-yl)-2-(4-(4-methyl-4H-1,2,4-triazol-3-yl)piperidin-1-yl)benzonitrile] are 100 to 1000 nM and 100 to 1000 nM.
As for `Cn1cnnc1C1CCN(c2c(C#N)cccc2-c2cccc(C=O)c2)CC1` [Example 110, 3′-formyl-2-(4-(4-methyl-4H-1,2,4-triazol-3-yl)piperidin-1-yl)-[1,1′-biphenyl]-3-carbonitrile], the IC50 on QPCTL was 100 to 1000 nM; at QPCT (rhQPCT) it was below 100 nM.
As to `Cn1cnnc1C1CCN(c2c(C#N)cccc2-c2ccc(B(O)O)cc2)CC1` [Example 111, (3′-cyano-2′-(4-(4-methyl-4H-1,2,4-triazol-3-yl)piperidin-1-yl)-[1,1′-biphenyl]-4-yl)boronic acid], the IC50 on QPCTL is 100 to 1000 nM; on QPCT (rhQPCT), below 100 nM.
In the case of `Cn1cnnc1C1CCN(c2c(C#N)cccc2-c2cccc(B(O)O)c2)CC1` [Example 112, (3′-cyano-2′-(4-(4-methyl-4H-1,2,4-triazol-3-yl)piperidin-1-yl)-[1,1′-biphenyl]-3-yl)boronic acid], the IC50 at QPCTL and on QPCT (rhQPCT) was below 100 nM each time.
`Cn1cnnc1C1CCN(c2c(C#N)cccc2-c2ccc3[nH]nc(O)c3c2)CC1` [Example 113, 3-(3-hydroxy-1H-indazol-5-yl)-2-(4-(4-methyl-4H-1,2,4-triazol-3-yl)piperidin-1-yl)benzonitrile]: the half-inhibitory concentration (IC50) on QPCTL and on QPCT (rhQPCT) was below 100 nM in each case.
On to `Cn1cnnc1C1CCN(c2c(C#N)cccc2-c2cncc(Br)c2)CC1` [Example 114, 3-(5-bromopyridin-3-yl)-2-(4-(4-methyl-4H-1,2,4-triazol-3-yl)piperidin-1-yl)benzonitrile], for which the IC50 on QPCTL and at QPCT (rhQPCT) was below 100 nM in each case.
Turning to `Cn1cnnc1C1CCN(c2c(C#N)cccc2-c2ccc(O)nc2)CC1` [Example 116, 3-(6-hydroxypyridin-3-yl)-2-(4-(4-methyl-4H-1,2,4-triazol-3-yl)piperidin-1-yl)benzonitrile], the IC50 at QPCTL and at QPCT (rhQPCT) was below 100 nM throughout.
Take `Cn1cnnc1C1CCN(c2c(C#N)cccc2-c2cncc(OS(=O)(=O)F)c2)CC1` [Example 118, 5-(3-cyano-2-(4-(4-methyl-4H-1,2,4-triazol-3-yl)piperidin-1-yl)phenyl)pyridin-3-yl sulfurofluoridate]: the IC50 on QPCTL and at QPCT (rhQPCT) was below 100 nM each time.
On to `Cn1cnnc1C1CCN(c2c(C#N)cccc2-c2ccc(OS(=O)(=O)F)nc2)CC1` [Example 119, 5-(3-cyano-2-(4-(4-methyl-4H-1,2,4-triazol-3-yl)piperidin-1-yl)phenyl)pyridin-2-yl sulfurofluoridate], for which the figures for the IC50 on QPCTL and at QPCT (rhQPCT) were below 100 nM and 100 to 1000 nM, respectively.
On the same counts, the results for `Cn1cnnc1C1CCN(c2c(C#N)cccc2-c2ccc3c(c2)B(O)OC3)CC1` [Example 121, 3-(1-hydroxy-1,3-dihydrobenzo[c][1,2]oxaborol-6-yl)-2-(4-(4-methyl-4H-1,2,4-triazol-3-yl)piperidin-1-yl)benzonitrile] are 100 to 1000 nM and 100 to 1000 nM.
With `Cn1cnnc1C1CCN(c2c(C#N)cccc2-c2cnc3cn[nH]c3c2)CC1` [Example 125, 2-(4-(4-methyl-4H-1,2,4-triazol-3-yl)piperidin-1-yl)-3-(1H-pyrazolo[4,3-b]pyridin-6-yl)benzonitrile], the IC50 at QPCTL was 100 to 1000 nM; at QPCT (rhQPCT) it was below 100 nM.
On the same counts, the results for `Cn1ccc(-c2ccc(-c3cncc(B(O)O)c3)c(N3CCC(c4nncn4C)CC3)c2C#N)n1` [Example 126, (5-(3-cyano-4-(1-methyl-1H-pyrazol-3-yl)-2-(4-(4-methyl-4H-1,2,4-triazol-3-yl)piperidin-1-yl)phenyl)pyridin-3-yl)boronic acid] are below 100 nM and below 100 nM.
On to `Cn1cnnc1N1CCN(c2c(C#N)ccc(F)c2-c2ccc(F)nc2)CC1` [Example 127, 4-fluoro-3-(6-fluoropyridin-3-yl)-2-(4-(4-methyl-4H-1,2,4-triazol-3-yl)piperazin-1-yl)benzonitrile], for which the IC50 on QPCTL and at QPCT (rhQPCT) was below 100 nM throughout.
With `C#Cc1ccc(-c2cccc(C#N)c2N2CCC(c3nncn3C)CC2)cc1C=O` [Example 128, 4′-ethynyl-3′-formyl-2-(4-(4-methyl-4H-1,2,4-triazol-3-yl)piperidin-1-yl)-[1,1′-biphenyl]-3-carbonitrile], the IC50 on QPCTL was 100 to 1000 nM; on QPCT (rhQPCT) it was below 100 nM.
On the same counts, the results for `Cn1cnnc1N1CCN(c2c(-c3ccc(F)nc3)ccc(C3CC3)c2C#N)CC1` [Example 129, 6-cyclopropyl-3-(6-fluoropyridin-3-yl)-2-(4-(4-methyl-4H-1,2,4-triazol-3-yl)piperazin-1-yl)benzonitrile] are below 100 nM and below 100 nM.
